Drawing on US20250115591A1, “NOVEL SULFONAMIDE CARBOXAMIDE COMPOUNDS” (INFLAZOME LIMITED, priority 2017, published 2025), this text covers IC50 for 26 compounds.

For test [1], the target named is T1, NLRP3 (Homo sapiens (Human), UniProt Q96P20). In words: Human whole blood IL1β release assay (LPS + nigericin). It counts as cell-based. The note with it: human whole blood, 1 μg/ml LPS, nigericin, IL-1β release; read-out: HWB IC50. The procedure: For systemic delivery, the ability to inhibit NLRP3 when the compounds are present within the bloodstream is of great importance. For this reason, the NLRP3 inhibitory activity of a number of compounds in human whole blood was investigated in accordance with the following protocol.
T1 sequence (Q96P20 whole entry): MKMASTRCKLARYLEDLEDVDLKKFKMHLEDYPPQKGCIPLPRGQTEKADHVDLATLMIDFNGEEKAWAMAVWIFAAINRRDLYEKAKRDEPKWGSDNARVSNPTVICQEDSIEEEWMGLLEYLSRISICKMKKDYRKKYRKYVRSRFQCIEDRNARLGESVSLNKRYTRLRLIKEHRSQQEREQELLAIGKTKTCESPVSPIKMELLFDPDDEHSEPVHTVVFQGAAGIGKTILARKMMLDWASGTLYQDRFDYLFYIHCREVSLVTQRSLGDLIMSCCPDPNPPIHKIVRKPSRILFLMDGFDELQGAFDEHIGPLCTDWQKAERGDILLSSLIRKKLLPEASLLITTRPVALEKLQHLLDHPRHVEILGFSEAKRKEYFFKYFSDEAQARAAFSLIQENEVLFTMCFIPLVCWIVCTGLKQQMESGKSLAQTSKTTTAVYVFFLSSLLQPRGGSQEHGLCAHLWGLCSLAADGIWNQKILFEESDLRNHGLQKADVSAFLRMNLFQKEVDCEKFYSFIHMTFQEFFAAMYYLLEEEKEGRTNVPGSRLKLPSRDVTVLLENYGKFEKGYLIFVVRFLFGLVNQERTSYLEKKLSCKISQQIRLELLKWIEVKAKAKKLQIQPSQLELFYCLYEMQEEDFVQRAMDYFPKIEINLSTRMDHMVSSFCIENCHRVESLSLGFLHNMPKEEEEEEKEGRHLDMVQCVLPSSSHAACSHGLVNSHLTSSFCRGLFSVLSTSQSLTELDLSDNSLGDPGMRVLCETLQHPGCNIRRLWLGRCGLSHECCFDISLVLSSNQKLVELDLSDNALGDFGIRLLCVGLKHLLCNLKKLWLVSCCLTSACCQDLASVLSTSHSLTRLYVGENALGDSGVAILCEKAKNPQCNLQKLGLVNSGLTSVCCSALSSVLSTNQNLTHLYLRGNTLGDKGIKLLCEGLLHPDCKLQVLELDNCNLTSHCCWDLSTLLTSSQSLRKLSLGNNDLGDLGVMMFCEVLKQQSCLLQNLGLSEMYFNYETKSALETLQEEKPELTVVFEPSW
Human whole blood in Li-heparin tubes was obtained from healthy donors from a volunteer donor panel. • 1. Plate out 80 μl of whole blood containing 1 μg/ml of LPS in 96-well, clear bottom cell culture plate (Corning #3585) • 2. Add 10 μl compound (8 points half-log dilution with 10 μM top dose) or vehicle (DMSO 0.1% FAC) to the appropriate wells • 3. Incubate for 3 hrs at 37° C., 5% CO2 • 4. Add 10 μl nigericin (Sigma #N7143) ([…]) to all wells • 5. Incubate for 1 hr at 37° C., 5% CO2 • 6. At the end of the incubation period, spin plates at 30×g for 5 mins to pellet cells and remove 20 μl of supernatant and add to 96-well v-bottom plates for IL-1β analysis (note: these plates containing the supernatants can be stored at −80° C. to be analysed at a later date) • 7. IL-1β was measured according to the manufacturer protocol (Perkin Elmer-AlphaLisa IL-Kit A[220F-5000) • 8. IC50 data is fitted to a non-linear regression equation (log inhibitor vs response-variable slope 4-parameters)

For test [2], the target named is T1, NLRP3. In words: THP-1 cells pyroptosis assay (LPS + nigericin, resazurin read-out). The conditions noted are these: 1 μg/ml LPS, 5 μM nigericin. It counts as cell-based. An outline of the steps:
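LPS-primed (1 μg/ml) human THP-1 cells in serum-free RPMI were exposed to compound (8-point half-log series, top dose as printed "10M") for 3 h at 37 °C, then to nigericin 5 μM for 1 h. Remaining viability was read by resazurin (100 μM, 1-2 h) fluorescence, and IC50 came from 4-parameter variable-slope regression.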
A general note: Resazurin is reduced to fluorescent resorufin, in cell work by metabolically active cells.

Where a name gives a salt, the structure may show the parent alone.

Usually IC50 stands for the midpoint of a concentration-inhibition curve. For the compound `CC(C)NC(=O)N1CCC(S(=O)(=O)NC(=O)Nc2c3c(cc4c2CCC4)CCC3)CC1` [Example 5, 4-(N-((1,2,3,5,6,7-Hexahydro-s-indacen-4-yl)carbamoyl)sulfamoyl)-N-isopropylpiperidine-1-carboxamide, potassium salt], the half-inhibitory concentration (IC50) on NLRP3 [1] is 1 to 10 µM; on NLRP3 [2], < 1 µM.

As to `O=C(Nc1c2c(cc3c1CCC3)CCC2)NS(=O)(=O)C1CCN(C(=O)C2CC2)CC1` [Example 7, 1-(Cyclopropanecarbonyl)-N-((1,2,3,5,6,7-hexahydro-s-indacen-4-yl)carbamoyl)piperidine-4-sulfonamide, potassium salt], the half-maximal inhibitory concentration (IC50) was 1 to 10 µM at NLRP3 [1] and < 1 µM at NLRP3 [2].

Consider `O=C(Nc1c2c(cc3c1CCC3)CCC2)NS(=O)(=O)C1CCN(C(=O)C(F)(F)F)CC1` [Example 8, N-((1,2,3,5,6,7-Hexahydro-s-indacen-4-yl)carbamoyl)-1-(2,2,2-trifluoroacetyl)piperidine-4-sulfonamide, potassium salt], for which the 50% inhibitory concentration (IC50) at NLRP3 [1] was < 1 µM; on NLRP3 [2], 1 to 10 µM.

Regarding `COC(=O)N1CCC(S(=O)(=O)NC(=O)Nc2c3c(cc4c2CCC4)CCC3)CC1` [Example 13, Methyl 4-(N-((1,2,3,5,6,7-hexahydro-s-indacen-4-yl)carbamoyl)sulfamoyl)piperidine-1-carboxylate, potassium salt], the figures for the IC50 at NLRP3 [1] and on NLRP3 [2] were > 10 µM and < 1 µM, respectively.

As to `CCN1CC(N2CCC(S(=O)(=O)NC(=O)Nc3c4c(cc5c3CCC5)CCC4)CC2)C1` [Example 24, 1-(1-Ethylazetidin-3-yl)-N-((1,2,3,5,6,7-hexahydro-s-indacen-4-yl)carbamoyl)piperidine-4-sulfonamide, potassium salt], the IC50 at NLRP3 [1] and on NLRP3 [2] was < 1 µM throughout.

Take `CCC(=O)N1CCCC(S(=O)(=O)NC(=O)Nc2c3c(cc4c2CCC4)CCC3)C1` (stereo not shown) [Example 32, N-((1,2,3,5,6,7-Hexahydro-s-indacen-4-yl)carbamoyl)-1-propionylpiperidine-3-sulfonamide, potassium salt]: the IC50 at NLRP3 [1] and on NLRP3 [2] was 1 to 10 µM in each case.

Take `O=C(Nc1c2c(cc3c1CCC3)CCC2)NS(=O)(=O)C1CCCN(CCF)C1` (stereo not shown) [Example 34, 1-(2-Fluoroethyl)-N-((1,2,3,5,6,7-hexahydro-s-indacen-4-yl)carbamoyl)piperidine-3-sulfonamide, potassium salt]: the half-maximal inhibitory concentration (IC50) at NLRP3 [1] was 1 to 10 µM; at NLRP3 [2], < 1 µM.

Consider `O=C(Nc1c2c(cc3c1CCC3)CCC2)NS(=O)(=O)C1CNc2ccccc2C1` (stereo not shown) [Example 35, N-((1,2,3,5,6,7-Hexahydro-s-indacen-4-yl)carbamoyl)-1,2,3,4-tetrahydroquinoline-3-sulfonamide, potassium salt], for which the IC50 on NLRP3 [1] is > 10 µM; at NLRP3 [2], < 1 µM.

Consider `O=C(Nc1c2c(cc3c1CCC3)CCC2)NS(=O)(=O)C1CCN(C2CC2)C1` (stereo not shown) [Example 39, 1-Cyclopropyl-N-((1,2,3,5,6,7-hexahydro-s-indacen-4-yl)carbamoyl)pyrrolidine-3-sulfonamide, potassium salt], for which the IC50 on NLRP3 [1] is 1 to 10 µM; on NLRP3 [2] it was < 1 µM.

Consider `CN1CC(S(=O)(=O)NC(=O)Nc2c3c(cc4c2CCC4)CCC3)C1` [Example 49, N-((1,2,3,5,6,7-Hexahydro-s-indacen-4-yl)carbamoyl)-1-methylazetidine-3-sulfonamide, potassium salt], for which the IC50 at NLRP3 [1] and at NLRP3 [2] was < 1 µM throughout.

Consider `CCN1CC(S(=O)(=O)NC(=O)Nc2c3c(cc4c2CCC4)CCC3)C1` [Example 53, 1-Ethyl-N-((1,2,3,5,6,7-hexahydro-s-indacen-4-yl)carbamoyl) azetidine-3-sulfonamide, potassium salt], for which the IC50 on NLRP3 [1] and on NLRP3 [2] was < 1 µM throughout.

For `CCC(CC)N1CC(S(=O)(=O)NC(=O)Nc2c3c(cc4c2CCC4)CCC3)C1` [Example 65, N-((1,2,3,5,6,7-Hexahydro-s-indacen-4-yl)carbamoyl)-1-(pentan-3-yl)azetidine-3-sulfonamide, potassium salt], the IC50 at NLRP3 [1] and on NLRP3 [2] was < 1 µM each time.

As for `O=C(Nc1c2c(cc3c1CCC3)CCC2)NS(=O)(=O)C1CN(C(=O)OCc2ccccc2)C1` [Example 71, Benzyl 3-(N-((1,2,3,5,6,7-hexahydro-s-indacen-4-yl)carbamoyl)sulfamoyl)azetidine-1-carboxylate, potassium salt], the IC50 is > 10 µM at NLRP3 [1] and < 1 µM at NLRP3 [2].

Turning to `O=C(Nc1c2c(cc3c1CCC3)CCC2)NS(=O)(=O)C1CN(C2CCOCC2)C1` [Example 75, N-((1,2,3,5,6,7-Hexahydro-s-indacen-4-yl)carbamoyl)-1-(tetrahydro-2H-pyran-4-yl)azetidine-3-sulfonamide, potassium salt], the IC50 on NLRP3 [1] and at NLRP3 [2] was < 1 µM in each case.

Regarding `O=C(Nc1c2c(cc3c1CCC3)CCC2)NS(=O)(=O)C1CN(Cc2cccnc2)C1` [Example 90, N-((1,2,3,5,6,7-Hexahydro-s-indacen-4-yl)carbamoyl)-1-(pyridin-3-ylmethyl)azetidine-3-sulfonamide, potassium salt], the concentration for half-maximal inhibition (IC50) at NLRP3 [1] and at NLRP3 [2] was < 1 µM in each case.

For the compound `O=C(Nc1c2c(cc3c1CCC3)CCC2)NS(=O)(=O)C1CN(CC(F)(F)F)C1` [Example 96, N-((1,2,3,5,6,7-Hexahydro-s-indacen-4-yl)carbamoyl)-1-(2,2,2-trifluoroethyl)azetidine-3-sulfonamide, potassium salt], the figures for the concentration for half-maximal inhibition (IC50) on NLRP3 [1] and on NLRP3 [2] were 1 to 10 µM and < 1 µM, respectively.

Turning to `CC(C)CN1CC(S(=O)(=O)NC(=O)Nc2c3c(cc4c2CCC4)CCC3)C1` [Example 97, N-((1,2,3,5,6,7-Hexahydro-s-indacen-4-yl)carbamoyl)-1-isobutylazetidine-3-sulfonamide, potassium salt], the 50% inhibitory concentration (IC50) at NLRP3 [1] and at NLRP3 [2] was < 1 µM throughout.

With `O=C(Nc1c2c(cc3c1CCC3)CCC2)NS(=O)(=O)C1CN(CC2COC2)C1` [Example 101, N-((1,2,3,5,6,7-Hexahydro-s-indacen-4-yl)carbamoyl)-1-(oxetan-3-ylmethyl)azetidine-3-sulfonamide, potassium salt], the half-maximal inhibitory concentration (IC50) on NLRP3 [1] and on NLRP3 [2] was < 1 µM each time.

For `O=C(Nc1c2c(cc3c1CCC3)CCC2)NS(=O)(=O)C1CN(Cc2ccncc2)C1` [Example 103, N-((1,2,3,5,6,7-Hexahydro-s-indacen-4-yl)carbamoyl)-1-(pyridin-4-ylmethyl)azetidine-3-sulfonamide, potassium salt], the IC50 at NLRP3 [1] was 1 to 10 µM; on NLRP3 [2], < 1 µM.

On to `O=C(Nc1c2c(cc3c1CCC3)CCC2)NS(=O)(=O)C1CN(Cc2cccnc2Br)C1` [Example 105, 1-((2-Bromopyridin-3-yl)methyl)-N-((1,2,3,5,6,7-hexahydro-s-indacen-4-yl)carbamoyl)azetidine-3-sulfonamide, potassium salt], for which the IC50 on NLRP3 [1] is > 10 µM; on NLRP3 [2], < 1 µM.

For the compound `O=C(Nc1c2c(cc3c1CCC3)CCC2)NS(=O)(=O)C1CN(CCF)C1` [Example 108, 1-(2-Fluoroethyl)-N-((1,2,3,5,6,7-hexahydro-s-indacen-4-yl)carbamoyl)azetidine-3-sulfonamide, potassium salt], the concentration for half-maximal inhibition (IC50) at NLRP3 [1] and at NLRP3 [2] was < 1 µM throughout.

Take `O=C(Nc1c2c(cc3c1CCC3)CCC2)NS(=O)(=O)C1CN(C2CCOC2)C1` (stereo not shown) [Example 121, N-((1,2,3,5,6,7-Hexahydro-s-indacen-4-yl)carbamoyl)-1-(tetrahydrofuran-3-yl)azetidine-3-sulfonamide, potassium salt]: the IC50 at NLRP3 [1] and at NLRP3 [2] was < 1 µM each time.

Consider `CCC(C)N1CC(S(=O)(=O)NC(=O)Nc2c3c(cc4c2CCC4)CCC3)C1` (stereo not shown) [Example 122, 1-(sec-Butyl)-N-((1,2,3,5,6,7-hexahydro-s-indacen-4-yl)carbamoyl)azetidine-3-sulfonamide, potassium salt], for which the 50% inhibitory concentration (IC50) at NLRP3 [1] and on NLRP3 [2] was < 1 µM each time.

With `CC1(C)CCC1N1CC(S(=O)(=O)NC(=O)Nc2c3c(cc4c2CCC4)CCC3)C1` (stereo not shown) [Example 124, 1-(2,2-Dimethylcyclobutyl)-N-((1,2,3,5,6,7-hexahydro-s-indacen-4-yl)carbamoyl)azetidine-3-sulfonamide, potassium salt], the IC50 at NLRP3 [1] was 1 to 10 µM; at NLRP3 [2], < 1 µM.

Regarding `O=C(Nc1c2c(cc3c1CCC3)CCC2)NS(=O)(=O)C1CN(CC2CCC2)C1` [Example 126, 1-(Cyclobutylmethyl)-N-((1,2,3,5,6,7-hexahydro-s-indacen-4-yl)carbamoyl)azetidine-3-sulfonamide, potassium salt], the IC50 on NLRP3 [1] and at NLRP3 [2] was 1 to 10 µM throughout.

`CC(CO)N1CC(S(=O)(=O)NC(=O)Nc2c3c(cc4c2CCC4)CCC3)C1` (stereo not shown) [Example 130, N-((1,2,3,5,6,7-Hexahydro-s-indacen-4-yl)carbamoyl)-1-(1-hydroxypropan-2-yl)azetidine-3-sulfonamide, potassium salt]: the 50% inhibitory concentration (IC50) at NLRP3 [1] and at NLRP3 [2] was < 1 µM throughout.
